Experimental data as given in patent publication US10828315B2 (Madrigal Pharmaceuticals, Inc., priority 2013, dated 2020).
Like-named read-outs stand apart in the source and are kept apart here.

Key:
[1] = mouse, plasma, 1 h, 10 µM
Protocol: (§2) 150 ng/mL solution of SDC-TRAP-0002 in methanol was prepared using the internal standard spiking solution. This solution was used to precipitate all plasma samples in the study. 200 μL was pipetted into a 96 deepwell plate over dry ice. 10 μL of 1 mM stock in DMSO was added to a 1.5 mL microfuge tube, then 990 μL of plasma. Samples were mixed by vortex, then 50 μL of each sample was added in triplicate to a 96-well plate containing internal standard solution. This was designated the 0 hour time point sample. 250 μL of the remaining plasma sample was added to each of four 96 deepwell plates—one per time point. Samples were incubated at 37° C. with gentle shaking for 0.25, 0.5, and 1 hour. After each time point, one plate of each sample was removed from the shaker and placed on wet ice for approximately 2 minutes. 50 μL at plasma aliquots (in triplicate) were added to the deepwell plate containing internal standard solution. After the last time point was extracted, the 96 deepwell plate was vortexed, then centrifuged at 2-8° C. 150 μL of supernatant was collected and 25 μL at of water was added. Samples were mixed and analyzed by LC-MS/MS.
(§3) 990 μL mouse plasma aliquots from a common stock were spiked with 10 μL of 1 mM stock of one of seven SDC-TRAP samples identified in the table below. Each sample was mixed and divided into 250 μL aliquots, each representing time points 0, 15 minutes, 30 minutes or 1 hour. At the prescribed time point, 3×50 μL samples were each mixed with 200 μL of methanol containing internal standard and held on dry ice until all time point samples were extracted. The samples collectively were vortex mixed for 1.5 minutes at 1500 rpm, then centrifuged at 4400 rpm for 10 minutes at 8° C.

[2] = Stability in human plasma, 2 h at 37° C. (Example 5); format: in vitro ADME; conditions: human, plasma, 2 h
Protocol: (§1) SDC-TRAP-0022 and SDC-TRAP-0028 were incubated in human and mouse plasma for 2 h at 37° C. and assayed for integrity at 0.25, 0.5, 1 and 2 h. The values reported below are the remaining of the parent compound at the end of the 2 h incubation period.

[3] = Stability in mouse plasma, 2 h at 37° C. (Example 5); format: in vitro ADME; conditions: mouse, plasma, 2 h
Protocol: as §1

Human H3122 NSCLC cells = test: Cell viability assay (CellTiter-Glo) in H3122 cells (Example 4); format: cell-based; conditions: NCI-H3122
Protocol: Human H3122 NSCLC cells were obtained and grown in RPMI in the presence of fetal bovine serum (10%), 2 mM L-glutamine and antibiotics (100 IU/ml penicillin and 100 μg/ml streptomycin, Sigma Aldrich.) Cells were maintained at 37° C., 5% CO2 atmosphere.
Cell viability was measured using the CellTiter-Glo® assay (Promega). In brief, cells were plated in 96-well plates in triplicate at optimal seeding density (determined empirically) and incubated at 37° C., 5% CO2 atmosphere for 24 hr prior to the addition of drug or vehicle (0.3% DMSO) to the culture medium. At the end of the assay, CellTiter-Glo was added to the wells per manufacturer's recommendation, shaken for two minutes and incubated for 10 minutes at room temperature. Luminescence (0.1 sec) was measured with a Victor II microplate reader (Perkin Elmer) and the resulting data were used to calculate cell viability, normalized to vehicle control.
Cells as described above were treated with exemplary SDC-TRAPs and their viability determined as above as well. The following table illustrates the results.

[4] = Stability in cell culture media (Example 18); conditions: for Media (5 μM) % Remaining 1 h (37° C.)§: data from single parent peak; for Media (5 μM) % Remaining 1 h (37° C.)*: sum of both peaks
Protocol: 98 μL of DMEM+10% FBS, +1% P/S, +1.5 g/L sodium bicarbonate cell culture media was mixed with 2 μL of DMSO and aliquotted into 96-well plates at 250 μL per 0, 1, 2, and 18 hour time point.
3×50 μL media samples in 96 were held in 96-well plates at −80° C. until the last time point was extracted. 200 μL of methanol containing IS was added and mixed by vortex at 1500 rpm for 1.5 minutes at room temperature. The samples were centrifuged at 4400 rpm for 10 minutes at 8° C.

HER2 [5] = test: HER2 degradation in BT-474 cells (Example 3, Methods 1 and 2); format: cell-based, human
Outline: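 BT-474 cells treated 24 h at 37 °C with 10-point 3-fold compound dilutions; HER2 read by in-cell immunofluorescence after paraformaldehyde fixation, signal normalized to DRAQ5 nuclear stain, EC50 from curve fit. Degradation also checked by western blot of cytosolic lysates against tubulin.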

HER2 [6] = test: HER2 degradation assay with BT-474 cell line (Example 12, FACS); format: cell-based, human
[7] = Mouse plasma stability protocol, up to 1 h (Examples 16-18); conditions: for % Remaining (1 h): % Remaining of parent after 1 h incubation in mouse plasma at 37° C. (10 μM); for % Remaining (1 h, 37° C.) / Mouse (10 μM) % Remaining 1 h (37° C.)§ / Mouse (10 μM) % Remaining 1 h (37° C.)*: mouse plasma; for Mouse (10 μM) % Remaining 1 h (37° C.)§: data from single parent peak; for Mouse (10 μM) % Remaining 1 h (37° C.)*: sum of both peaks
Protocol: as §2, §3

[8] = Artificial membrane permeability assay (PAMPA); conditions: same protocol, second table
H 3211 NSLC cells = test: IC50 of continuous and pulsed exposure (Examples 9 and 10); format: cell-based; conditions: two replicate columns
[9] = system: human urinary bladder cancer cell line RT-112; test: Cytotoxicity assay (CellTiter-Glo, 72 h), RT-112; format: cell-based; conditions: RT-112, 72 h, read-out: Cytotoxicity (IC50, nM) RT-112
Protocol: (§4) Cytotoxicity of SDC-TRAP molecules was determined in three cancer cell lines. […] 80 μL of CellTiter-Glo was added to each well, followed by room temperature incubation in the dark for 15 minutes. Cell was determined by luminescence. IC50 was calculated using XLfit™ software.

[10] = system: HCT-116 human colorectal xenografts; test: Mouse xenograft efficacy in HCT-116 colon cancer model; conditions: IV, Q7D×3, then drug-free period; SDC-TRAP-0063 200 and 100 mg/kg, SDC-TRAP-0046 94 mg/kg, irinotecan 67 mg/kg, SYN-01 100 mg/kg
Protocol: The cells were maintained in vitro as a monolayer culture in McCoy's 5a Medium. Fetal bovine serum was then be added to the medium. The final concentration of fetal bovine serum was 10%. Cells were cultured at 37° C. and 5% CO2. The tumor cells were routinely sub-cultured twice weekly by trypsin-EDTA treatment. Cells in an exponential growth phase were harvested and counted for tumor inoculation.
100 18-22 g, 5-7 week old, female BALB/cA nude mice were inoculated with the HCT 116 cells (2.0×10^6, 1:1 with Matrigel) subcutaneously on the back of each animal (0.1 mL/mouse). When the average tumor volume reached about 150-250 mm^3, 60 of the inoculated mice was selected based on tumor growth and randomly grouped into 6 treatment groups (10 mice per group) according to the following table.
The administrations were made with 27-gauge IV needle.
During the treatment period, the implanted tumors were measured by caliper twice per week. The tumors were measured for the maximum width (X) and length (Y) and the tumor volumes (V) were calculated using the formula: V=(X^2Y)/2. The differences in the tumor volume between the control and treatment groups were analyzed for significance using the unpaired two-tailed Student's t-test. P<0.05 was considered to be statistically significant. The animal body weights were also weighed and recorded twice per week.

[11] = system: human urinary bladder cancer cell line SW780; test: Cytotoxicity assay (CellTiter-Glo, 72 h), SW780; format: cell-based; conditions: SW780, 72 h, read-out: Cytotoxicity (IC50, nM) SW-780
Protocol: as §4

[12] = system: human breast cancer cell line BT-474; test: Cytotoxicity assay (CellTiter-Glo, 72 h), BT-474; format: cell-based; conditions: BT-474, 72 h, read-out: Cytotoxicity (IC50, nM) BT-474
Protocol: as §4

in vivo = conditions: female, SCID, mouse
[13] = Tissue Distribution Data for SDC-TRAP-0046, Time (h) 0.083
[14] = Tissue Distribution Data for SDC-TRAP-0046, Time (h) 6
[15] = Tissue Distribution Data for SDC-TRAP-0046, Time (h) 12
[16] = Tissue Distribution Data for SDC-TRAP-0046, Time (h) 24
[17] = Tissue Distribution Data for SDC-TRAP-0046, Time (h) 48
[18] = after SDC-TRAP-0046 50 mg/110 mL/kg IV, DRD, 6 h
[19] = after SDC-TRAP-0046 50 mg/110 mL/kg IV, DRD, 12 h
[20] = after SDC-TRAP-0046 50 mg/110 mL/kg IV, DRD, 24 h
[21] = after SDC-TRAP-0046 50 mg/110 mL/kg IV, DRD, 48 h
[22] = Tissue Distribution Data for SDC-TRAP-0171, Time (h) 0.083
[23] = Tissue Distribution Data for SDC-TRAP-0171, Time (h) 1
[24] = Tissue Distribution Data for SDC-TRAP-0171, Time (h) 6
[25] = Tissue Distribution Data for SDC-TRAP-0171, Time (h) 24
[26] = Tissue Distribution Data for SDC-TRAP-0171, Time (h) 48

CCc1c2c(nc3ccc(OCC(=O)N(C)CCOCCn4ccc5cc(-n6c(O)nnc6-c6cc(C(C)C)c(O)cc6O)ccc54)cc13)-c1cc3c(c(=O)n1C2)COC(=O)C3(O)CC (stereo not drawn) [SDC-TRAP-0028, 2-((4,11-diethyl-4-hydroxy-3,14-dioxo-3,4,12,14-tetrahydro-1H-pyrano[3′,4′: 6,7]indolizino[1,2-b]quinolin-9-yl)oxy)-N-(2-(2-(5-(3-(2,4-dihydroxy-5-isopropylphenyl)-5-hydroxy-4H-1,2,4-triazol-4-yl)-1H-indol-1-yl)ethoxy)ethyl)-N-methylacetamide]
% Remaining (1 h) [1]: 40.9% | % Remaining (1 h, 37° C.) [1]: 41% | % Remaining 2 h (37° C.), HU ([2]; 1 μM): 51% | % Remaining 2 h (37° C.), HU ([2]; 10 μM): 65% | % Remaining 2 h (37° C.), MO ([3]; 1 μM): 53% | % Remaining 2 h (37° C.), MO ([3]; 10 μM): 47% | IC50 (Human H3122 NSCLC cells): 909 nM

CCc1c2c(nc3ccc(OC(=O)N(C)CCOCCn4ccc5cc(-n6c(O)nnc6-c6cc(C(C)C)c(O)cc6O)ccc54)cc13)-c1cc3c(c(=O)n1C2)COC(=O)C3(O)CC (stereo not drawn) [SDC-TRAP-0029, 4,11-diethyl-4-hydroxy-3,14-dioxo-3,4,12,14-tetrahydro-1H-pyrano[3′,4′:6,7]indolizino[1,2-b]quinolin-9-yl (2-(2-(5-(3-(2,4-dihydroxy-5-isopropylphenyl)-5-hydroxy-4H-1,2,4-triazol-4-yl)-1H-indol-1-yl)ethoxy)ethyl)(methyl)carbamate]
Media (5 μM) % Remaining 19 h (37° C.) [4]: 29% | Media (5 μM) % Remaining 1 h (37° C.)§ [4]: 43% | Media (5 μM) % Remaining 1 h (37° C.)* [4]: 46% | IC50 (HER2 [5]): 1600 nM | IC50 (HER2 [6]): 1370 nM | % Remaining (1 h) [7]: 47.0% | % Remaining (1 h, 37° C.) [7]: 47% | Mouse (10 μM) % Remaining 1 h (37° C.)§ [7]: 44% | Mouse (10 μM) % Remaining 1 h (37° C.)* [7]: 47% | Mass Retention [8]: 84.0% | IC50 (H 3211 NSLC cells; 1 h, read-out: IC50, 1h-pulse/71h-compound free, 7.5 × 10^3 cells/well): > 3000 nM | IC50 (H 3211 NSLC cells; read-out: IC50, 1h-pulse/71h-compound free, 7.5 × 10^3 cells/well): > 3000 nM | IC50 (Human H3122 NSCLC cells): 125 nM

CCc1c2c(nc3ccc(OC(=O)N4CCN(Cc5ccc(-n6c(O)nnc6-c6cc(C(C)C)c(O)cc6O)cc5)CC4)cc13)-c1cc3c(c(=O)n1C2)COC(=O)C3(O)CC (stereo not drawn) [SDC-TRAP-0046, 4,11-diethyl-4-hydroxy-3,14-dioxo-3,4,12,14-tetrahydro-1H-pyrano[3′,4′:6,7]indolizino[1,2-b]quinolin-9-yl 4-(4-(3-(2,4-dihydroxy-5-isopropylphenyl)-5-hydroxy-4H-1,2,4-triazol-4-yl)benzyl)piperazine-1-carboxylate]
Media (5 μM) % Remaining 19 h (37° C.) [4]: 37% | Media (5 μM) % Remaining 1 h (37° C.)§ [4]: 62% | Media (5 μM) % Remaining 1 h (37° C.)* [4]: 65% | IC50 (HER2 [5]): 246 nM | IC50 [9]: 20 nM | IC50 (HER2 [6]): 246 nM | antitumor activity in HCT-116 xenografts (FIG. 23) [10]: better activity in inhibiting the growth of HCT-116 cells in vivo than either positive control group | % Remaining (1 h) [7]: 51.6% | % Remaining (1 h, 37° C.) [7]: 52% | Mouse (10 μM) % Remaining 1 h (37° C.)§ [7]: 50% | Mouse (10 μM) % Remaining 1 h (37° C.)* [7]: 52% | Mass Retention [8]: 88.1% | IC50 [11]: 489 nM | Plasma Conc. [13]: 360 µM | Tumor Conc. [13]: 6.94 nmol/g of tissue | Tumor/Plasma Ratio [13]: 0.0193 | Plasma Conc. [14]: 5.88 µM | Tumor Conc. [14]: 4.97 nmol/g of tissue | Tumor/Plasma Ratio [14]: 0.844 | Plasma Conc. [15]: 2.37 µM | Tumor Conc. [15]: 5.21 nmol/g of tissue | Tumor/Plasma Ratio [15]: 2.20 | Plasma Conc. [16]: 0.0542 µM | Tumor Conc. [16]: 2.19 nmol/g of tissue | Tumor/Plasma Ratio [16]: 40.3 | Plasma Conc. [17]: BQL | Tumor Conc. [17]: 0.188 nmol/g of tissue | Plasma Conc. [18]: 5.88 µM | Tumor Conc. [18]: 4.97 nmol/g of tissue | Plasma Conc. [19]: 2.37 µM | Tumor Conc. [19]: 5.21 nmol/g of tissue | Plasma Conc. [20]: 0.0542 µM | Tumor Conc. [20]: 2.19 nmol/g of tissue | Plasma Conc. [21]: BQL | Tumor Conc. [21]: 0.188 nmol/g of tissue | Tumor/Plasma Ratio (after SDC-TRAP-0046 IV, 6 h): 0.844 | Tumor/Plasma Ratio (after SDC-TRAP-0046 IV, 12 h): 2.20 | Tumor/Plasma Ratio (after SDC-TRAP-0046 IV, 24 h): 40.3 | Tumor/Plasma Ratio (after SDC-TRAP-0046 IV, […]): 0.0193 | IC50 [12]: 205 nM

CC(C)c1cc(-c2nnc(O)n2-c2ccc(CN3CCN(C(=O)Oc4ccc(COC(=O)Nc5cccc6c5CN(C5CCC(=O)NC5=O)C6=O)cc4)CC3)c(F)c2)c(O)cc1O (stereo not drawn) [SDC-TRAP-0171, 4-((((2-(2,6-dioxopiperidin-3-yl)-1-oxoisoindolin-4-yl)carbamoyl)oxy)methyl)phenyl-4-(4-(3-(2,4-dihydroxy-5-isopropylphenyl)-5-hydroxy-4H-1,2,4-triazol-4-yl)-2-fluorobenzyl)piperazine-1-carboxylate]
IC50 [9]: 20 nM | Kp at 1 h (in vivo): 0.0589 | Kp at 6 h (in vivo): 1.59 | Kp at 24 h (in vivo): 100 | Kp at […] (in vivo): 0.0179 | concentration at 1 h (in vivo): 217 µM | concentration at 6 h (in vivo): 4.51 µM | concentration at 24 h (in vivo): 0.028 µM | concentration at 48 h (in vivo): 0.241 µM | concentration at […] (in vivo): 918 µM | IC50 (HER2 [6]): 199 nM | % Remaining (1 h) [7]: 17.7% | IC50 [11]: 275 nM | Plasma Conc. [22]: 618 µM | Tumor Conc. [22]: 0.083 nmol/g of tissue | Tumor/Plasma Ratio [22]: 0.0164 | Plasma Conc. [23]: 32.2 µM | Tumor Conc. [23]: 1 nmol/g of tissue | Tumor/Plasma Ratio [23]: 0.249 | Plasma Conc. [24]: 1.21 µM | Tumor Conc. [24]: 6 nmol/g of tissue | Tumor/Plasma Ratio [24]: 3.10 | Plasma Conc. [25]: 0.00162 µM | Tumor Conc. [25]: 24 nmol/g of tissue | Tumor/Plasma Ratio [25]: 407 | Plasma Conc. [26]: BQL | Tumor Conc. [26]: 48 nmol/g of tissue | Tumor Conc. (Tissue Distribution Data for SDC-TRAP-0178, Time (h) 0.083): 16.4 nmol/g of tissue | Tumor Conc. (Tissue Distribution Data for SDC-TRAP-0178, Time (h) 1): 12.8 nmol/g of tissue | Tumor Conc. (Tissue Distribution Data for SDC-TRAP-0178, Time (h) 6): 7.17 nmol/g of tissue | Tumor Conc. (Tissue Distribution Data for SDC-TRAP-0178, Time (h) 24): 2.81 nmol/g of tissue | Tumor Conc. (Tissue Distribution Data for SDC-TRAP-0178, Time (h) 48): 1.01 nmol/g of tissue | IC50 [12]: 58 nM
